Drawing on patent publication US20250154127A1, “BICYCLIC HETEROARYL COMPOUNDS AND USES THEREOF” (ETERN BIOPHARMA (SHANGHAI) CO., LTD., priority 2022, published 2025), this text covers IC50 for 13 compounds.

One assay relates to MSTO-211H cells. Description: Proliferation Assay (CellTiter-Glo Luminescent Cell Viability Assay). In kind it is cell-based. To be noted: Homo sapiens, 96 hours treatment. A digest of the protocol:
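MSTO-211H cells, 1,500/well in RPMI 1640 with 10% FBS, plated overnight, then treated 96 h with 9-point 3-fold compound series in duplicate (DMSO below 0.5%). Viability by CellTiter-Glo luminescence; inhibition relative to DMSO wells, IC50 by four-parameter fit.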

The target in assay [1] is TEAD1(210-426) binding to YAP(50-100) (Homo sapiens, UniProt P28347). The assay can be described thus: TR-FRET Assay for TEAD1(210-426) Binding to YAP(50-100). The note with it: His-TEAD 10 nM, YAP-Biotin peptide 50 nM. In outline: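 10 nM His-TEAD1 preincubated 30 min at room temperature with compound (3-fold dilutions, 12 points, 1% DMSO), then 50 nM biotin-YAP peptide added.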
Sequence of TEAD1(210-426) binding to YAP(50-100) (P28347 209-426): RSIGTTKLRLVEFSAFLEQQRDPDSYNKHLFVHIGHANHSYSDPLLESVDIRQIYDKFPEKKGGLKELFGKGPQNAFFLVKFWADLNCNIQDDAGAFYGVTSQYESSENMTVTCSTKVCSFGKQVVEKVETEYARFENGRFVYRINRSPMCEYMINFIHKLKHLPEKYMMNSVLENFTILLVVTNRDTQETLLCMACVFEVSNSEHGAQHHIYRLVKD

Take `CNc1nccc(Cn2ccc(-c3nn(-c4ccc(OC(F)(F)F)cc4)c4c(F)cccc34)cc2=O)n1` [Compound 145, 4-(7-fluoro-1-(4-(trifluoromethoxy)phenyl)-1H-indazol-3-yl)-1-((2-(methylamino)pyrimidin-4-yl)methyl)pyridin-2(1H)-one]: the results for the IC50 (in the assay on MSTO-211H cells; in assay [1]) were at most 1 µM and at most 0.1 µM, respectively.

With `CNc1nccc(Cn2ccc(-c3nn(-c4ccc(Cl)cc4)c4c(F)cccc34)cc2=O)n1` [Compound 146, 4-(1-(4-chlorophenyl)-7-fluoro-1H-indazol-3-yl)-1-((2-(methylamino)pyrimidin-4-yl)methyl)pyridin-2(1H)-one], the IC50 is at most 1 µM in the assay on MSTO-211H cells and at most 0.1 µM in assay [1].

`COCCN(C)c1nccc(Cn2ccc(-c3nn(-c4ccc(C(F)(F)F)cc4)c4c(F)cccc34)cc2=O)n1` [Compound 147, 4-(7-fluoro-1-(4-(trifluoromethyl)phenyl)-1H-indazol-3-yl)-1-((2-((2-methoxyethyl)(methyl)amino)pyrimidin-4-yl)methyl)pyridin-2(1H)-one]: the figures for the IC50 (in the assay with MSTO-211H cells; in assay [1]) were at most 1 µM and at most 0.1 µM, respectively.

With `O=c1cc(-c2nn(-c3ccc(C(F)(F)F)cc3)c3c(Cl)cccc23)ccn1Cc1ccnc(NCCO)n1` [Compound 148, 4-(7-chloro-1-(4-(trifluoromethyl)phenyl)-1H-indazol-3-yl)-1-((2-((2hydroxyethyl)amino)pyrimidin-4-yl)methyl)pyridin-2(1H)-one], the IC50 in the assay with MSTO-211H cells was at most 1 µM; in assay [1], at most 0.1 µM.

In the case of `CNc1nccc(Cn2ccc(-c3nn(-c4ccc(C5CC5)cc4)c4c(F)cccc34)cc2=O)n1` [Compound 149, 4-(1-(4-cyclopropylphenyl)-7-fluoro-1H-indazol-3-yl)-1-((2-(methylamino)pyrimidin-4-yl)methyl)pyridin-2(1H)-one], the IC50 was at most 1 µM with MSTO-211H cells and at most 0.1 µM in assay [1].

In the case of `COCCNc1nccc(Cn2ccc(-c3nn(-c4ccc(OC(F)(F)F)cc4)c4c(F)cccc34)cc2=O)n1` [Compound 150, 4-(7-fluoro-1-(4-(trifluoromethoxy)phenyl)-1H-indazol-3-yl)-1-((2-((2-methoxyethyl)amino)pyrimidin-4-yl)methyl)pyridin-2(1H)-one], the figures for the IC50 (in the assay on MSTO-211H cells; in assay [1]) were at most 1 µM and at most 0.1 µM, respectively.

Consider `O=c1cc(-c2nn(-c3ccc(OC(F)(F)F)cc3)c3c(F)cccc23)ccn1Cc1ccnc(NCCO)n1` [Compound 151, 4-(7-fluoro-1-(4-(trifluoromethoxy)phenyl)-1H-indazol-3-yl)-1-((2-((2-hydroxyethyl)amino)pyrimidin-4-yl)methyl)pyridin-2(1H)-one], for which the IC50 in the assay with MSTO-211H cells was at most 1 µM; in assay [1] it was at most 0.1 µM.

For `CNc1nccc(Cn2ccc(-c3nn(-c4ccc(C5COC5)cc4)c4c(F)cccc34)cc2=O)n1` [Compound 152], the IC50 in the assay with MSTO-211H cells is at most 1 µM; in assay [1] it was at most 0.1 µM.

On to `O=c1cc(-c2nn(-c3ccc(C(F)(F)F)cc3)c3cccc(F)c23)ccn1Cc1ccnc(OCCO)n1` [Compound 153, 4-(4-fluoro-1-(4-(trifluoromethyl)phenyl)-1H-indazol-3-yl)-1-((2-(2-hydroxyethoxy)pyrimidin-4-yl)methyl)pyridin-2(1H)-one], for which the half-inhibitory concentration (IC50) in the assay on MSTO-211H cells was at most 1 µM; in assay [1], at most 0.1 µM.

Turning to `COCCOc1nccc(Cn2ccc(-c3nn(-c4ccc(C(F)(F)F)cc4)c4cccc(F)c34)cc2=O)n1` [Compound 154, 4-(4-fluoro-1-(4-(trifluoromethyl)phenyl)-1H-indazol-3-yl)-1-((2-(2-methoxyethoxy)pyrimidin-4-yl)methyl)pyridin-2(1H)-one], the figures for the IC50 (with MSTO-211H cells; in assay [1]) were at most 1 µM and at most 0.1 µM, respectively.

For `COCCN(C)c1nccc(Cn2ccc(-c3nn(-c4ccc(C(F)(F)F)cc4)c4cccc(F)c34)cc2=O)n1` [Compound 155, 4-(4-fluoro-1-(4-(trifluoromethyl)phenyl)-1H-indazol-3-yl)-1-((2-((2-methoxyethyl)(methyl)amino)pyrimidin-4-yl)methyl)pyridin-2(1H)-one], the results for the IC50 (in the assay with MSTO-211H cells; in assay [1]) were at most 1 µM and 0.1 to 1 µM, respectively.

On to `O=c1cc(-c2nn(-c3ccc(C(F)(F)F)cc3)c3c(F)cccc23)ccn1Cc1ccnc(Cl)n1` [Compound 157, 1-((2-chloropyrimidin-4-yl)methyl)-4-(7-fluoro-1-(4-(trifluoromethyl)phenyl)-1H-indazol-3-yl)pyridin-2(1H)-one], for which the figures for the IC50 (with MSTO-211H cells; in assay [1]) were at most 1 µM and at most 0.1 µM, respectively.

In the case of `CNc1nccc(Cn2ccc(-c3nn(-c4ccc(C(F)(F)F)cc4)c4cccc(F)c34)cc2=O)n1` [Compound 158, 4-(1-(4-((difluoro-13-methyl)-12-fluoranyl)phenyl)-4-fluoro-1H-indazol-3-yl)-1-((2-(methylamino)pyrimidin-4-yl)methyl)pyridin-2(1H)-one], the IC50 with MSTO-211H cells was at most 1 µM; in assay [1] it was at most 0.1 µM.
